Values quoted from earlier work as cited in article PMC8152572 (Chemical Science, 2020).

Test system: scFv-SM3
Details: SM3 antibody, comparison of 2a, 2b and 2c

binding to SM3 (in words): worse binding to the naked derivative 2c
Substance: APDTRP [Compound 2c]
